Values of other authors as cited in patent publication US12052992B2, “Insecticidal composition” (CLARKE MOSQUITO CONTROL PRODUCTS, INC., priority 2017, dated 2024).

Settings: comparison value for water

O [water]
evaporation rate λ: 62.40 μm^2 s^−1° C.^−1
